According to patent US8680139B2 (Progenra, priority 2009, dated 2014):

Target: T1, USP7 (Homo sapiens, UniProt Q93009)
T1 construct: full length human USP7 protein; made in house
Experiment: USP7, Ub-PLA2 assay
Type: biochemical
Conditions: Ub-PLA2 / NBD C6-HPC fluorescence, 30 minute preincubation; read-out: EC50 for inhibition of USP7
In short: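 Activity read as fluorescence in a Ub-PLA2 format, with percent inhibition calculated within each plate against DMSO (uninhibited) and NEM (background) wells. Vehicle was 100% DMSO.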

T1 sequence (Q93009 whole entry): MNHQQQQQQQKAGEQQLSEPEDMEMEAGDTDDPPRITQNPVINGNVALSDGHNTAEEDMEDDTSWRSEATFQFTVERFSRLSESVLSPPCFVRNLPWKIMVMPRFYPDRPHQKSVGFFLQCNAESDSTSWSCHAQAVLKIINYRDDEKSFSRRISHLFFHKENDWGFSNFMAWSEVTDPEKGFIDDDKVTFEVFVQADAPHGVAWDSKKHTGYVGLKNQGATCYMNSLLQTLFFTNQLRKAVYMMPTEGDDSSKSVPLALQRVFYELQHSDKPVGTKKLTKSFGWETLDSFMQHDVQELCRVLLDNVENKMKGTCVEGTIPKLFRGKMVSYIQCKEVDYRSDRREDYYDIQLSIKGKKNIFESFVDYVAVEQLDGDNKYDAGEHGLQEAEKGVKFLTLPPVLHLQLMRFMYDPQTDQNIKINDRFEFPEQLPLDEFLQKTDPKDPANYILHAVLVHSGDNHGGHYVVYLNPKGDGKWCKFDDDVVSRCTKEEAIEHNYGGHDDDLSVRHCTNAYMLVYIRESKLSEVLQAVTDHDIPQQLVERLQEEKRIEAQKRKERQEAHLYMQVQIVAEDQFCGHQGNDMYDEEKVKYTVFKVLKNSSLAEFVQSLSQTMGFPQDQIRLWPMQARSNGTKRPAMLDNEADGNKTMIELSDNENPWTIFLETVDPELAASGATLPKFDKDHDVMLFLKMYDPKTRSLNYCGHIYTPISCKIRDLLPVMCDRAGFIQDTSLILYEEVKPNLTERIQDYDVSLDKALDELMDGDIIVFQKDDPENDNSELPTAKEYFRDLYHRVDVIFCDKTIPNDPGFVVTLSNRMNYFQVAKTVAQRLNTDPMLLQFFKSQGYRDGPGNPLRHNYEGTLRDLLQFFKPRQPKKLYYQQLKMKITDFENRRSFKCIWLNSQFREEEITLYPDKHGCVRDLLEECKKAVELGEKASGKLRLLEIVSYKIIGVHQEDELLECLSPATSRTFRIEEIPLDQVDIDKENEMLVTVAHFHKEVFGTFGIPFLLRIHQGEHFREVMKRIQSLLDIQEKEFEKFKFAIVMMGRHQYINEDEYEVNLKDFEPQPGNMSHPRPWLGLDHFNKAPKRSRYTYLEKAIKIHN

| Structure (SMILES) | EC50 [nM] |
| --- | --- |
| CN1C2CCC1CC(NC(=O)c1cc([N+](=O)[O-])c(Sc3c(Cl)cncc3Cl)s1)C2 (stereo not drawn) [Example 184, 5-((3,5-dichloropyridin-4-yl)thio)-N-(8-methyl-8-azabicyclo[3.2.1]octan-3-yl)-4-nitrothiophene-2-carboxamide] | ≤ 1000 |
| O=C(NC1CCN(C2CC2)C1)c1cc([N+](=O)[O-])c(Sc2c(Cl)cncc2Cl)s1 (stereo not drawn) [Example 198, N-(1-cyclopropylpyrrolidin-3-yl)-5-((3,5-dichloropyridin-4-yl)thio)-4-nitrothiophene-2-carboxamide] | 1000 to 10000 |
| CC(=O)N1CCC(NC(=O)c2cc([N+](=O)[O-])c(Sc3c(Cl)cncc3Cl)s2)C1 (stereo not drawn) [Example 199, N-(1-acetylpyrrolidin-3-yl)-5-((3,5-dichloropyridin-4-yl)thio)-4-nitrothiophene-2-carboxamide] | 1000 to 10000 |
| CN(C)CCC(NC(=O)c1cc([N+](=O)[O-])c(Sc2c(Cl)cncc2Cl)s1)c1ccccc1 (stereo not drawn) [Example 200, 5-((3,5-dichloropyridin-4-yl)thio)-N-(3-(dimethylamino)-1-phenylpropyl)-4-nitrothiophene-2-carboxamide] | ≤ 1000 |
| O=C(NC1CN2CCC1CC2)c1cc([N+](=O)[O-])c(Sc2c(Cl)cncc2Cl)s1 (stereo not drawn) [Example 202, 5-((3,5-dichloropyridin-4-yl)thio)-4-nitro-N-(quinuclidin-3-yl)thiophene-2-carboxamide] | ≤ 1000 |
| CN(C)CCCOc1ccc(NC(=O)c2cc(C#N)c(Sc3c(Cl)cncc3Cl)s2)cc1 [Example 204] | 1000 to 10000 |
| N#Cc1cc(C(=O)Nc2cnc3ccccc3c2)sc1Sc1c(Cl)cncc1Cl [Example 207, 4-cyano-5-((3,5-dichloropyridin-4-yl)thio)-N-(quinolin-3-yl)thiophene-2-carboxamide] | 1000 to 10000 |
| CS(=O)(=O)c1ccc(NC(=O)c2cc(C#N)c(Sc3c(Cl)cncc3Cl)s2)cc1 [Example 208, 4-cyano-5-((3,5-dichloropyridin-4-yl)thio)-N-(4-(methylsulfonyl)phenyl)thiophene-2-carboxamide] | ≤ 1000 |
| CCOC(=O)CNC(=O)c1cc([N+](=O)[O-])c(Sc2c(Cl)cncc2Cl)s1 [Example 209, Ethyl 2-(5-((3,5-dichloropyridin-4-yl)thio)-4-nitrothiophene-2-carboxamido)acetate] | 1000 to 10000 |
| O=C(O)CNC(=O)c1cc([N+](=O)[O-])c(Sc2c(Cl)cncc2Cl)s1 [Example 210, 2-(5-((3,5-dichloropyridin-4-yl)thio)-4-nitrothiophene-2-carboxamido)acetic acid] | 1000 to 10000 |
| O=C(NCC(=O)N1CCC(O)CC1)c1cc([N+](=O)[O-])c(Sc2c(Cl)cncc2Cl)s1 [Example 211, 5-((3,5-dichloropyridin-4-yl)thio)-N-(2-(4-hydroxypiperidin-1-yl)-2-oxoethyl)-4-nitrothiophene-2-carboxamide] | 1000 to 10000 |
| O=C(NCC(=O)N1CCCC(O)C1)c1cc([N+](=O)[O-])c(Sc2c(Cl)cncc2Cl)s1 (stereo not drawn) [Example 212, 5-((3,5-dichloropyridin-4-yl)thio)-N-(2-(3-hydroxypiperidin-1-yl)-2-oxoethyl)-4-nitrothiophene-2-carboxamide] | 1000 to 10000 |
| COCCCNC(=O)CNC(=O)c1cc([N+](=O)[O-])c(Sc2c(Cl)cncc2Cl)s1 [Example 213, 5-((3,5-dichloropyridin-4-yl)thio)-N-(2-((3-methoxypropyl)amino)-2-oxoethyl)-4-nitrothiophene-2-carboxamide] | 1000 to 10000 |
| COCCNC(=O)CNC(=O)c1cc([N+](=O)[O-])c(Sc2c(Cl)cncc2Cl)s1 [Example 214, 5-((3,5-dichloropyridin-4-yl)thio)-N-(2-((2-methoxyethyl)amino)-2-oxoethyl)-4-nitrothiophene-2-carboxamide] | 1000 to 10000 |
| O=C(NCC(=O)N1CCC(CO)CC1)c1cc([N+](=O)[O-])c(Sc2c(Cl)cncc2Cl)s1 [Example 215, 5-((3,5-dichloropyridin-4-yl)thio)-N-(2-(4-(hydroxymethyl)piperidin-1-yl)-2-oxoethyl)-4-nitrothiophene-2-carboxamide] | 1000 to 10000 |
| O=C(NCC(=O)N1CCC(F)CC1)c1cc([N+](=O)[O-])c(Sc2c(Cl)cncc2Cl)s1 [Example 216, 5-((3,5-dichloropyridin-4-yl)thio)-N-(2-(4-fluoropiperidin-1-yl)-2-oxoethyl)-4-nitrothiophene-2-carboxamide] | 1000 to 10000 |
| CN(C)CCNC(=O)CNC(=O)c1cc([N+](=O)[O-])c(Sc2c(Cl)cncc2Cl)s1 [Example 217, 5-((3,5-dichloropyridin-4-yl)thio)-N-(2-((2-(dimethylamino)ethyl)amino)-2-oxoethyl)-4-nitrothiophene-2-carboxamide] | 1000 to 10000 |
| CN1CCN(C(=O)CNC(=O)c2cc([N+](=O)[O-])c(Sc3c(Cl)cncc3Cl)s2)CC1 [Example 218, 5-((3,5-dichloropyridin-4-yl)thio)-N-(2-(4-methylpiperazin-1-yl)-2-oxoethyl)-4-nitrothiophene-2-carboxamide] | 1000 to 10000 |
| O=C(CNC(=O)c1cc([N+](=O)[O-])c(Sc2c(Cl)cncc2Cl)s1)NCC(F)F [Example 219, 5-((3,5-dichloropyridin-4-yl)thio)-N-(2-((2,2-difluoroethyl)amino)-2-oxoethyl)-4-nitrothiophene-2-carboxamide] | 1000 to 10000 |
| O=C(CNC(=O)c1cc([N+](=O)[O-])c(Sc2c(Cl)cncc2Cl)s1)NC1CCCCC1 [Example 220] | 1000 to 10000 |
| O=C(NCC(=O)N1CCCCC1)c1cc([N+](=O)[O-])c(Sc2c(Cl)cncc2Cl)s1 [Example 221, 5-((3,5-dichloropyridin-4-yl)thio)-4-nitro-N-(2-oxo-2-(piperidin-1-yl)ethyl)thiophene-2-carboxamide] | 1000 to 10000 |
| CN1CCC(NC(=O)CNC(=O)c2cc([N+](=O)[O-])c(Sc3c(Cl)cncc3Cl)s2)CC1 [Example 222, 5-((3,5-dichloropyridin-4-yl)thio)-N-(2-((1-methylpiperidin-4-yl)amino)-2-oxoethyl)-4-nitrothiophene-2-carboxamide] | ≤ 1000 |

Continued, values first:

| EC50 [nM] | Structure (SMILES) |
| --- | --- |
| ≤ 1000 | O=C(NC12CC3CC(CC(O)(C3)C1)C2)c1cc([N+](=O)[O-])c(Sc2c(Cl)cncc2Cl)s1 [Example 176, 5-((3,5-dichloropyridin-4-yl)thio)-N-((1r,3s,5R,7S)-3-hydroxyadamantan-1-yl)-4-nitrothiophene-2-carboxamide] |
| ≤ 1000 | O=C(NC1CC2CCC1C2)c1cc([N+](=O)[O-])c(Sc2c(Cl)cncc2Cl)s1 (stereo not drawn) [Example 177, N-(bicyclo[2.2.1]heptan-2-yl)-5-((3,5-dichloropyridin-4-yl)thio)-4-nitrothiophene-2-carboxamide] |
| ≤ 1000 | CC1(C)CC(NC(=O)c2cc([N+](=O)[O-])c(Sc3c(Cl)cncc3Cl)s2)CC(C)(C)N1 [Example 178, 5-((3,5-dichloropyridin-4-yl)thio)-4-nitro-N-(2,2,6,6-tetramethylpiperidin-4-yl)thiophene-2-carboxamide] |
| ≤ 1000 | O=C(Nc1ccc(O)cc1)c1cc([N+](=O)[O-])c(Sc2c(Cl)cncc2Cl)s1 [Example 181, 5-((3,5-dichloropyridin-4-yl)thio)-N-(4-hydroxyphenyl)-4-nitrothiophene-2-carboxamide] |
| ≤ 1000 | CC(=O)c1ccc(NC(=O)c2cc([N+](=O)[O-])c(Sc3c(Cl)cncc3Cl)s2)cc1 [Example 183, N-(4-acetylphenyl)-5-((3,5-dichloropyridin-4-yl)thio)-4-nitrothiophene-2-carboxamide] |
| ≤ 1000 | CCN1CCC(CCNC(=O)c2cc([N+](=O)[O-])c(Sc3c(Cl)cncc3Cl)s2)CC1 [Example 185, 5-((3,5-dichloropyridin-4-yl)thio)-N-(2-(1-ethylpiperidin-4-yl)ethyl)-4-nitrothiophene-2-carboxamide] |
| ≤ 1000 | CCn1cnc(NC(=O)c2cc([N+](=O)[O-])c(Sc3c(Cl)cncc3Cl)s2)n1 [Example 186, 5-((3,5-dichloropyridin-4-yl)thio)-N-(1-ethyl-1H-1,2,4-triazol-3-yl)-4-nitrothiophene-2-carboxamide] |
| ≤ 1000 | CC(C)N1CCC(NC(=O)c2cc([N+](=O)[O-])c(Sc3c(Cl)cncc3Cl)s2)CC1 [Example 187, 5-((3,5-dichloropyridin-4-yl)thio)-N-(1-isopropylpiperidin-4-yl)-4-nitrothiophene-2-carboxamide] |
| ≤ 1000 | CN1CCCC(NC(=O)c2cc([N+](=O)[O-])c(Sc3c(Cl)cncc3Cl)s2)C1 (stereo not drawn) [Example 189, 5-((3,5-dichloropyridin-4-yl)thio)-N-(1-methylpiperidin-3-yl)-4-nitrothiophene-2-carboxamide] |
| ≤ 1000 | CN1CCC(CNC(=O)c2cc([N+](=O)[O-])c(Sc3c(Cl)cncc3Cl)s2)CC1 [Example 190, 5-((3,5-dichloropyridin-4-yl)thio)-N-((1-methylpiperidin-4-yl)methyl)-4-nitrothiophene-2-carboxamide] |
| ≤ 1000 | O=C(NCCCN1CCCC1)c1cc([N+](=O)[O-])c(Sc2c(Cl)cncc2Cl)s1 [Example 191, 5-((3,5-dichloropyridin-4-yl)thio)-4-nitro-N-(3-(pyrrolidin-1-yl)propyl)thiophene-2-carboxamide] |
| ≤ 1000 | CSCCCNC(=O)c1cc([N+](=O)[O-])c(Sc2c(Cl)cncc2Cl)s1 [Example 194, 5-((3,5-dichloropyridin-4-yl)thio)-N-(3-(methylthio)propyl)-4-nitrothiophene-2-carboxamide] |
| ≤ 1000 | O=C(NC1CCNC1)c1cc([N+](=O)[O-])c(Sc2c(Cl)cncc2Cl)s1 (stereo not drawn) [Example 195, 5-((3,5-dichloropyridin-4-yl)thio)-4-nitro-N-(pyrrolidin-3-yl)thiophene-2-carboxamide] |
| ≤ 1000 | O=C(NC1CCNCC1)c1cc([N+](=O)[O-])c(Sc2c(Cl)cncc2Cl)s1 [Example 196, 5-((3,5-dichloropyridin-4-yl)thio)-4-nitro-N-(piperidin-4-yl)thiophene-2-carboxamide] |
